Measured values as given in US7205403B2, “8-Heteroaryl xanthine adenosine A2B receptor antagonists” (King Pharmaceuticals Research and Development, Inc., priority 2002, dated 2007).
“Also recorded” adds a separate entry of the source. Where two headings read alike, the source gives them in different places.

Assays:
[1] = molecular target: T1, human A3 adenosine receptor (Homo sapiens, UniProt P0DMS8); experiment: [3H]MRE3008F20 binding to human A3 receptors expressed in CHO cells
T1 construct: expressed in transfected cells; host or cells: CHO cells (membranes)
T1 sequence (P0DMS8 1-318): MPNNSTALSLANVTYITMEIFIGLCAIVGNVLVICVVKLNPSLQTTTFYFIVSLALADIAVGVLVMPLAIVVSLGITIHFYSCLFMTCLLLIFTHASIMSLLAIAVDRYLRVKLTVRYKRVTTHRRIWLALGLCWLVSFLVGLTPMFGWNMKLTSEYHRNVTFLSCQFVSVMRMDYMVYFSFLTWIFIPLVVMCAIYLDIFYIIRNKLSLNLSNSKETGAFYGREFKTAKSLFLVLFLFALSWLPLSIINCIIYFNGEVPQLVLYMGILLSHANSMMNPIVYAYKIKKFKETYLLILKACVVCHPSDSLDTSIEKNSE
Method: (§1) The cells were grown adherently and maintained in Dulbecco's modified Eagle's medium with nutrient mixture F12 without nucleosides at 37° C. in 5% CO2/95% air. The cells were washed with phosphate-buffered saline and scraped off flasks in ice cold hypotonic buffer ([…] Tris HCl, 2 mM EDTA, pH 7.4). The cell suspension was homogenized with a Polytron and the homogenate was centrifuged for 30 minutes at 48,000 g. The resultant membrane pellet was re-suspended in 50 mM Tris HCl buffer at pH 7.4 for A1 adenosine receptors; in 50 mM Tris HCl 10 mM MgCl, at pH 7.4 for A2A adenosine receptors; in 50 mM Tris HCl, 10 mM MgCl2, 1 mM EDTA, at pH 7.4 for A3 adenosine receptors and were utilized for binding assays.
Binding of [^3H]-MRE3008-F20 to CHO cells transfected with the human recombinant A3 adenosine receptors was performed according to Varani et al., 2000. Competition experiments were carried out in duplicate in a final volume of 250 μl in test tubes containing 1 nM [^3H]-MRE3008-F20, 50 mM Tris HCl buffer, […] MgCl2, pH 7.4 and 100 μl of diluted membranes (50 μg of protein/assay) and at least 6–8 different concentrations of examined ligands for 120 minutes at 4° C.
(§2) The filter bound radioactivity was counted on Top Count (efficiency 57%) with Micro-Scint 20.
(§3) The filter bound radioactivity was counted on a Top Count brand Microplate Scintillation Counter (efficiency 57%) with Micro-Scint 20. […] Inhibitory binding constant. […] Results and Discussion

[2] = molecular target: T2, human A2B adenosine receptor (Homo sapiens, UniProt P29275); experiment: [3H]DPCPX binding to human A2B receptors expressed in HEK293 cells; set-up: host or cells: HEK 293 cells (membranes); conditions: geometric mean (95% confidence interval); >1000 = no appreciable binding; read-out: Ki, [3H]DPCPX binding to human A2B receptors expressed in HEK293 cells
T2 sequence (P29275 1-332): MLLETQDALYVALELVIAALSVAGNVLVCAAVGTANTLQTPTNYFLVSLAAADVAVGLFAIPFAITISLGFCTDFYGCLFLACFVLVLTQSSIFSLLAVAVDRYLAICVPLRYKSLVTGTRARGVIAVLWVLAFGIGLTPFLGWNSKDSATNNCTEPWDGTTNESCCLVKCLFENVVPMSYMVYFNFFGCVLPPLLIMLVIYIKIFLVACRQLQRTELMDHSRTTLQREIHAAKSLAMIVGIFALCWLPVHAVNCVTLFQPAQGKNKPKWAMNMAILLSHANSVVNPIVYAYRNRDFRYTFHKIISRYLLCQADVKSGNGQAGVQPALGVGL
Method: HEK 293 cells transfected with the human recombinant A2B adenosine receptor were obtained from Receptor Biology, Inc. (Beltsville, Md. USA).
Binding of 1 [^3H]-DPCPX to HEK 293 cells transfected with the human recombinant A2B adenosine receptors was performed according to the method described by Varani et al., 2000. In particular, assays were carried out for 60 minutes at 25° C. in 100 μl of […] Tris HCl buffer, […] MgCl2, 1 mM EDTA, 0.1 mM benzamidine pH 7.4, 2 IU/ml adenosine deaminase containing 40 nM [^3H]-DPCPX, diluted membranes (20 μg of protein/assay) and at least 6–8 different concentration of tested compounds.
as §2, §3

[3] = molecular target: T3, human A2A adenosine receptor (Homo sapiens, UniProt P29274); experiment: [3H]ZM241385 binding to human A2A receptors expressed in CHO cells; conditions: for Ki: read-out: Ki, [3H]ZM241385 binding to human A2A receptors expressed in CHO cells
T3 construct: expressed in transfected cells; host or cells: CHO cells (membranes)
Method: as §1, §2, §3

[4] = molecular target: T4, human A1 adenosine receptor (Homo sapiens, UniProt P30542); experiment: [3H]DPCPX binding to human A1 receptors expressed in CHO cells
T4 construct: expressed in transfected cells; host or cells: CHO cells (membranes)
T4 sequence (P30542 1-326): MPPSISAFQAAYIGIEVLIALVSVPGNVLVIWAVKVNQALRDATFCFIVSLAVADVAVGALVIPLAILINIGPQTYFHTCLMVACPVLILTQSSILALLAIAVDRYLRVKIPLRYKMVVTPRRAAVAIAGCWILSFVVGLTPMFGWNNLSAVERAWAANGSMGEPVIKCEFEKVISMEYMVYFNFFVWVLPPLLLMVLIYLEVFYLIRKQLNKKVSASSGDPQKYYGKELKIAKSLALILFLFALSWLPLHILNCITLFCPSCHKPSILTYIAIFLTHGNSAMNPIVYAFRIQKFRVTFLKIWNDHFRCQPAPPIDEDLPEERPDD
Method: as §1
Displacement experiments were performed for 120 minutes at 25° C. in 200 μl of buffer containing 1 nM ^3H]-DPCPX 20 μl of diluted membranes (50 μg of protein/assay) and at least 6 to 8 different concentrations of examined compounds.
as §2, §3

[5] = geometric mean (95% confidence interval), >1000 = no appreciable binding

T3 sequence (P29274 whole entry): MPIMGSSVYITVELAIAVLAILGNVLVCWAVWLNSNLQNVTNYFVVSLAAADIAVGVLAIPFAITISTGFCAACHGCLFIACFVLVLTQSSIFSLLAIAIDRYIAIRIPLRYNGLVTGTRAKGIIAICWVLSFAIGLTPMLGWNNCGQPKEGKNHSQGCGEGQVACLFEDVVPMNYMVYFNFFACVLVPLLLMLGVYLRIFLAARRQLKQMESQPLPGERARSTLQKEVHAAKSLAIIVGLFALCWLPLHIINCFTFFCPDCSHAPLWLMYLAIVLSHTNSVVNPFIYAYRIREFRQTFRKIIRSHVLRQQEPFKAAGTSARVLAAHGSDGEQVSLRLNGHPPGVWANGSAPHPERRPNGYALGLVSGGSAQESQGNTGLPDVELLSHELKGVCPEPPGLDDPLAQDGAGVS

Row | Structure (SMILES) | Ki [1] [nM] | Ki [2] [nM] | Ki [3] [nM] | Ki [4, 5] [nM] | Ki, [3H]MRE3008F20 binding to human A3 receptors expressed in CHO cells [1, 5] | Ki, [3H]ZM241385 binding to human A2A receptors expressed in CHO cells [3, 5] | Ki, [3H]DPCPX binding to human A1 receptors expressed in CHO cells [4, 5] | Ki [4] [nM] | Ki [1, 5] [nM] | Ki [3, 5] [nM]
1 | CCCn1c(=O)c2[nH]c(-c3cc(OCC(=O)Nc4ccc(F)cc4)n(C)n3)nc2n(CCC)c1=O [AS61, N-(4-fluorophenyl)-2-{[3-(2,6-dioxo-1,3-dipropyl-2,3,6,9-tetrahydro-1H-purin-8-yl)-1-methyl-1H-pyrazol-5-yl]oxy}acetamide] | > 1000 | 185 | > 1000 | 181 |  |  |  |  |  | 
2 | CCCn1c(=O)c2[nH]c(-c3cc(NC(=O)Cc4cccc(OC)c4)nn3C)nc2n(CCC)c1=O [AS13, 2-(3-methoxyphenyl)-N-[5-(2,6-dioxo-1,3-dipropyl-2,3,6,9-tetrahydro-1H-purin-8-yl)-1-methyl-1H-pyrazol-3-yl]acetamide] | > 1000 | 96 | > 1000 |  | no appreciable affinity; also recorded: without significant binding | no appreciable affinity; also recorded: without significant binding | no appreciable affinity; also recorded: without significant binding |  |  | 
3 | CCCn1c(=O)c2[nH]c(-c3cc(NC(=O)Cc4ccc(OCc5cccc(C(F)(F)F)c5)cc4)nn3C)nc2n(CCC)c1=O [AS30, N-[5-(2,6-dioxo-1,3-dipropyl-2,3,6,9-tetrahydro-1H-purin-8-yl)-1-methyl-1H-pyrazol-3-yl]-2-(4-{[3-(trifluoromethyl)benzyl]oxy}phenyl)acetamide] | > 1000 | 90 | > 1000 | 100 |  |  |  |  |  | 
4 | CC(C)Cn1c(=O)c2[nH]c(-c3cc(OCC(=O)Nc4ccc(F)cc4)n(C)n3)nc2n(CC(C)C)c1=O [AS62, 2-{[3-(1,3-diisobutyl-2,6-dioxo-2,3,6,9-tetrahydro-1H-purin-8-yl)-1-methyl-1H-pyrazol-5-yl]oxy}-N-(4-fluorophenyl)acetamide] | > 1000 | 207 | > 1000 | 72 |  |  |  |  |  | 
5 | CCCn1c(=O)c2c(nc(/C=C/c3cc(C(=O)OCC)n(C)c3)n2C)n(CCC)c1=O [AS33, ethyl 4-[(E)-2-(7-methyl-1,3-dipropyl-2,6-dioxo-2,3,6,7-tetrahydro-1H-purin-8-yl)vinyl]-1-methyl-1H-pyrrole-2-carboxylate] | > 1000 | > 1000 | > 1000 |  |  |  |  | > 1000 |  | 
6 | Cn1nc(N)cc1-c1nc2c([nH]1)c(=O)n(C)c(=O)n2C [AS38, 8-(3-amino-1-methyl-1H-pyrazol-5-yl)-1,3-dimethyl-3,7-dihydro-1H-purine-2,6-dione] | > 1000 | 175 | > 1000 |  |  |  |  | > 1000 |  | 
7 | CCCn1c(=O)c2[nH]c(-c3cc(NC(=O)Cc4ccc(OCc5ccccc5)c(OC)c4)nn3C)nc2n(CCC)c1=O [AS56, 2-[4-(benzyloxy)-3-methoxyphenyl]-N-[5-(2,6-dioxo-1,3-dipropyl-2,3,6,9-tetrahydro-1H-purin-8-yl)-1-methyl-1H-pyrazol-3-yl]acetamide] | > 1000 | 100 | 2430 |  |  |  |  | 1790 |  | 
8 | CCCn1c(=O)c2[nH]c(-c3cc(NC(=O)Nc4ccc(OC)cc4)nn3C)nc2n(CCC)c1=O [AS49, 1-[5-(2,6-Dioxo-1,3-dipropyl-2,3,6,7-tetrahydro-1H-purin-8-yl)-1-methyl-1H-pyrazol-3-yl]-3-(4-methoxy-phenyl)-urea] | > 1000 | 81 | > 1000 | 1440 |  |  |  |  |  | 
9 | CCCn1c(=O)c2[nH]c(-c3cc(NC(=O)Cc4ccc(OC)cc4)nn3C)nc2n(CCC)c1=O [AS23, 2-(4-methoxyphenyl)-N-[5-(2,6-dioxo-1,3-dipropyl-2,3,6,9-tetrahydro-1H-purin-8-yl)-1-methyl-1H-pyrazol-3-yl]acetamide] | > 1000 | 100 | > 1000 | 850 |  |  |  |  |  | 
10 | CCCn1c(=O)c2[nH]c(-c3ccc(O)nc3)nc2n(CCC)c1=O [AS103, 1,3-di-n-propyl-8-(2-hydroxypyridin-5-yl)-xanthine] | 116 | 4.9 | 606 |  |  |  |  | 81 |  | 
11 | CCCn1c(=O)c2[nH]c(-c3cc(OCC(=O)Nc4ccc(C(C)=O)cc4)nn3C)nc2n(CCC)c1=O [AS69] |  | 86 |  |  | without significant binding | without significant binding | without significant binding |  |  | 
12 | CCCn1c(=O)c2[nH]c(-c3cc(OCC(=O)Nc4ccc(C)cc4)nn3C)nc2n(CCC)c1=O [AS92] | > 1000 | 19 | > 1000 | 79 |  |  |  |  |  | 
13 | CCCn1c(=O)c2[nH]c(-c3cc(NC(=O)Cc4ccc(F)cc4)nn3C)nc2n(CCC)c1=O [AS22, N-[5-(2,6-dioxo-1,3-dipropyl-2,3,6,9-tetrahydro-1H-purin-8-yl)-1-methyl-1H-pyrazol-3-yl]-2-(4-fluorophenyl)acetamide] | > 1000 | 88 | > 1000 | 200 |  |  |  |  |  | 
14 | CCCn1c(=O)c2[nH]c(-c3cc([N+](=O)[O-])cn3C)nc2n(CCC)c1=O [AS7, 8-(1-methyl-4-nitro-1H-pyrrol-2-yl)-1,3-dipropyl-3,7-dihydro-1H-purine-2,6-dione] | > 1000 | 342 | > 1000 |  |  |  |  | 122 |  | 
15 | CCCn1c(=O)c2[nH]c(-c3cc(OCC(=O)Nc4ccc(C)cc4)nn3C)nc2n(CCC)c1=O [AS59, N-(4-methylphenyl)-2-{[5-(1,3-dipropyl-2,6-dioxo-2,3,6,7-tetrahydro-1H-purin-8-yl)-1-methyl-1H-pyrazol-3-yl]oxy}acetamide] |  | 1010 |  | > 1000 |  |  |  |  | > 1000 | > 1000
16 | CCCn1c(=O)c2[nH]c(-c3cc(NC(=O)Cc4ccc(O)cc4)nn3C)nc2n(CCC)c1=O [AS17, 2-[4-hydroxyphenyl]-N-[5-(2,6-dioxo-1,3-dipropyl-2,3,6,9-tetrahydro-1H-purin-8-yl)-1-methyl-1H-pyrazol-3-yl]acetamide] | > 1000 | 103 | > 1000 |  | no appreciable affinity; also recorded: without significant binding | no appreciable affinity; also recorded: without significant binding | no appreciable affinity; also recorded: without significant binding |  |  | 
